Results from ChEMBL document CHEMBL1130724, “Synthesis and biological activity of [Tic5] didemnin B” (Bioorg Med Chem Lett, 1998).

Species: Oryctolagus cuniculus
Test: Compound was tested for inhibitory effect on protein biosynthesis in rabbit reticulocyte lysates
Format: functional

Row | IC50 [µM] | Compound
1 | 2.68 | CC[C@H](C)[C@H]1NC(=O)[C@@H](NC(=O)[C@@H](CC(C)C)N(C)C(=O)C2CCCN2C(=O)[C@H](C)O)[C@@H](C)OC(=O)[C@@H]2Cc3ccccc3CN2C(=O)[C@@H]2CCCN2C(=O)[C@H](CC(C)C)NC(=O)[C@@H](C)C(=O)[C@H](C(C)C)OC(=O)C[C@@H]1O (some centres not stated)
2 | 9 | CC[C@H](C)[C@H]1NC(=O)[C@@H](NC(=O)[C@@H](CC(C)C)N(C)C(=O)C2CCCN2C(=O)[C@H](C)O)[C@@H](C)OC(=O)[C@H](CC(C)C)N(C)C(=O)[C@@H]2CCCN2C(=O)[C@H](CC(C)C)NC(=O)[C@@H](C)C(=O)[C@H](C(C)C)OC(=O)C[C@@H]1O (some centres not stated) [[N-ME LEU5] DIDEMNIN B]
